# System: Staphylococcus epidermidis
# Assay: biofilm assay (biofilm inhibition and biofilm dissolution, color reaction on microtiter plate scale, FIG. 1)
# Format: cell-based
# Conditions: based on the positive control (PC1); for biofilm-dissolving effect: timepoint 24 h; for biofilm inhibition (biofilm-inhibiting effectiveness): timepoint 0 h
# Protocol: In the course of the biofilm assay, the biofilm inhibition at timepoint 0 h and also the biofilm-dissolving effect at timepoint 24 h is investigated using a color reaction on a microtiter plate scale.
# The test shown in FIG. 1 was carried out with Staphylococcus epidermidis, a germ which causes little harm for people with a normal immunological defense. Staphylococcus epidermidis (syn. Staphylococcus albus, Micrococcus epidermidis, Staphylococcus saprophyticus) is a Gram-positive, plasmacoagulase-negative, saprophagic bacterium which colonizes the human skin and mucosa. Furthermore, it can be found on foods and also colonizes on polymeric surfaces (e.g. packagings). However, in a hospital, in the case of immunocompromised people, it can, in cases of lack of cleanliness, be a cause of serious diseases.
SMILES,effectiveness in the biofilm assay (inhibition / dissolution not distinguished),biofilm-dissolving effect,biofilm inhibition (biofilm-inhibiting effectiveness)
COC(=O)c1ccc(O)cc1 [methylparaben],Neither ethylparaben nor methylparaben exhibited effectiveness,,
"CC(C)(C)CC(C)(C)c1ccc(OCCOCC[N+](C)(C)Cc2ccccc2)cc1 [benzethonium chloride, benzyldimethyl (4-{2-[4-(1,1,3,3-tetramethylbutyl)phenoxy]ethoxy}ethyl)ammonium chloride]",,very good biofilm-dissolving effect,
"Cn1sccc1=O [methylisothiazolinone, 2-methyl-2H-isothiazol-3-one]",,slight biofilm dissolution,very good biofilm-inhibiting effectiveness
"CCCCCCCCCCCC(=O)N[C@@H](CCCN=C(N)N)C(=O)OCC.Cl [lauroyl ethyl arginate, ethyl lauroyl arginate HCl]",,very good biofilm-dissolving effect,very good biofilm-inhibiting effectiveness
"Cc1cc(CC(C)CC(C)(C)C)n(O)c(=O)c1 (stereo not drawn) [piroctone olamine, 1-hydroxy-4-methyl-6-(2,4,4-trimethylpentyl)-2(1H)-pyridone]",,slight biofilm dissolution,very good biofilm-inhibiting effectiveness
CCOC(=O)c1ccc(O)cc1 [ethylparaben],Neither ethylparaben nor methylparaben exhibited effectiveness,,
